Test results published in patent US7763708B2, “Methods and compositions for modulating C5-a-mediated inflammatory responses” (Institute for Protein Science Co., Ltd., priority 2004, dated 2010).
“And” between values parts separate entries of the source, which are not always exact repeats. Identical values can stand only once. “Also recorded” adds a separate entry of the source. Ends that are not written are not given here.

How the values were obtained:
[1] = system: TGW human neuroblastoma cells bearing C5aR; experiment: Patch clamp measurement of inward ion current pulses induced by PL37-MAP; assay type: cell-based; details: 500 nM PL37-MAP
Protocol: The measurements were carried out on TGW human neuroblastoma cells bearing C5aR. Cells were voltage-clamped at room temperature at a holding potential of −70 mV using a whole cell clamp configuration. The instruments used for electrophysiology were as follows: an Axopatch 200-A patch clamp amplifier, a Digidata-1200 data acquisition system and pCLAMP 6.02 software from Axon Instruments Inc., (Foster City, Calif.). The head stage of the amplifier was fitted to an MHW-3 hydraulic manipulator manufactured by Narishige Inc. (Tokyo, Japan); and the cells were visualized using an Olympus IMT-2 invert microscope. Data acquisition and analysis were performed using an IBM compatible personal computer. Patch electrodes (OD=1.5 mm, thin wall, Garner Glass Co., Claremont, Calif.) were pulled with a PP-83 puller and polished with an MF-83 microforge (Narishige Inc). The resistance of patch electrodes was 8-10 MΩ. The solutions used were as follows: an extracellular solution (10 mM Hepes, 140 mM NaCl, 5 mM KCI, 2 mM CaCl2, 2 mM MgCl2, 10 mM glucose, pH=7.34) and an intracellular pipette solution (10 mM Hepes, 110 mM KCl, 15 mM NaCl, 0.1 mM CaCl2, 2 mM MgCl2, 1 mM EGTA, pH 7.25). […]
Inward calcium current pulses detected by a patch clamp assay were evoked when TGW cells were exposed to 500 nM PL37-MAP (FIG. 2a). […]

[2] = system: Rat Lethal Shock Model (C5a-mediated); experiment: Rat lethal shock induced by anti-Crry antibody following LPS priming; assay type: in vivo
Protocol: Administration of anti-rat Crry mAb (5I2) (Takizawa et al., J. Immunol. 152:3032, 1994) induces lethal shock in rats primed with a trace amount of lipopolysaccharide (LPS) (Matsuo et al., J. Exp. Med. 180:1619, 1994; Mizuno et al., J. Immunol. 162:5477, 1999). With this model, all rats sensitized with 0.05 mg/kg of LPS died within 30 min of injection of mAb 512. Male Wistar rats weighing about 250 g were purchased from Chubu Kagaku Shizai (Nagoya, Japan) and were allowed free access to food and water. Each rat was injected with 0.05 mg/kg of LPS, prepared from a phenol extraction of Salmonella typhosa (Sigma Chemical Co., St. Louis, Mo.) in 250 μl saline. Then, 0.75 mg/kg of 5I2 was administered 20 h later. Ten minutes before the injection of 5I2, saline or C-peptides in saline were injected. All injections were intravenously administered through the tail vein. Animal experiments were carried out according to Nagoya City University Guideline for the Care and Use of Experimental Animals and approved by the Nagoya City University Graduate School of Medical Sciences Animal Care Committee.
Administration of 0.75 mg/kg anti-rat Crry monoclonal antibody (Takizawa et al., J. Immunol. 152:3032, 1994) induces rapid lethal shock in rats primed with 0.05 mg/kg of LPS 20 h earlier (Matsuo et al., J. Exp. Med. 180:1619, 1994; Mizuno et al., J. Immunol. 162:5477, 1999). […] In order to investigate the inhibitory effect of the C-peptides in this model, we injected rats with saline (for the control) or C-peptides in 250 μl of saline 10 min before the 5I2 injection. All rats injected with saline died within 30 min (Table 1). However, all rats injected with 4 mg/kg of Pep-A survived. […] Some of the surviving rats stopped breathing briefly in the first 1 or 2 min after injection of 5I2, but were soon breathing again and about 20-40 min later began moving.

[3] = molecular target: T1, C5a (Homo sapiens, UniProt P01031); experiment: Surface plasmon resonance (Biacore) binding of C-peptides to immobilized C5a; parameters: Complement anaphylatoxin C5a is a 74-amino acid peptide generated from the fifth component of complement (C5); details: PBS, 25° C., 10 μl/min, EA-blocked cell subtracted
T1 sequence (P01031 678-751 limits assumed): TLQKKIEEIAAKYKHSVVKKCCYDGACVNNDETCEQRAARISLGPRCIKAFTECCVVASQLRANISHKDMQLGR
Protocol: (§1) Binding interactions between PL37 or C5a with C-peptides were evaluated using surface plasmon resonance (SPR) technology with the Biacore system. PL37 and C5a were covalently immobilized on the CM5 sensor chip by amine coupling methods using N-ethyl-N-(dimethylaminopropyl)carbodiimide/N-hydroxysuccinimide (EDC/NHS) according to the manufacturer's instructions. We activated the surface of the CM5 sensor chip with EDC/NHS for 20 min before injection with PL37-MAP (200 μg/ml in 10 mM sodium carbonate buffer, pH 8.5, over flow cell 2) or C5a (100 μg/ml in 10 mM acetate buffer, pH 5, over flow cell 3). Afterwards, excess NHS was deactivated for 20 min with 1 M ethanolamine hydrochloride (EA), pH 8.5. The reference flow cell was activated with EDC/NHS, and blocked with EA. Coupling was performed at a flow rate of 5 μl/min at 25° C. in PBS. Analyte (30 μl of C-peptide A or B) was injected at 10 μl/min at 25° C. in PBS. Binding interactions were determined by passing samples simultaneously over both the EA-blocked cell and the flow cell with immobilized PL37 or C5a so as to obtain units of resonance response (RU) by subtraction of the background using Biacore software (BIA evaluation).
Binding of C-peptides to C5a was also examined. C5a was covalently coupled to a CM5 sensor chip resulting in a net increase of 5,770 RU. […]

[4] = molecular target: T1, C5a; experiment: Intracellular Ca++ mobilization in neutrophils triggered by C5a (calcium imaging); assay type: cell-based
Protocol: Neutrophils were isolated from fresh human blood with 0.2% EDTA as an anticoagulant. Whole blood was collected from a healthy volunteer (a collaborator of this study) via vein puncture. A 2.4 ml aliquot of blood was then layered onto 2 ml Mono-Poly Resolving Medium (Dainihon Seiyaku, Tokyo, Japan) in a centrifuge tube and centrifuged at 400 g for 20 min at room temperature. The polymorphonuclear leukocytes (neutrophils) were then harvested and the cell fraction was washed with Hanks' balanced salt solution (HBSS).
The isolated neutrophils were loaded with 2 μM Fura-2/AM (Molecular Probes, Eugene, Oreg.) mixed with 0.02% Pluronic F-127 (Molecular Probes) and 0.2% DMSO in HBSS for 40 min at 37° C. The suspension was agitated to prevent sedimentation. After loading, the cells were washed with HBSS twice and suspended in HBSS containing 0.3% BSA (HBSS/BSA). Approximately 1×10^6 cells in 900 μl HBSS/BSA were added to a poly-L-lysine-coated 35 mm Petri dish and allowed to attach to the bottom of the dish for 30 min. Changes in intracellular calcium concentrations in response to C5a or a mixture of peptides (C-peptides and C5a) were determined by monitoring the ratio of fluorescence light emission at 5I0 nm as a result of excitation at 340 and 380 nm at 37° C. using an ARGUS HiSCA calcium imaging system (Hamamatsu Photonics, Hamamatsu, Japan). The mixture of peptides and C5a was incubated in an Eppendorf tube on ice for 30 min in the HBSS solution and then applied to the cells after a 2 min baseline recording.
The effect of C-peptides on C5a function was analyzed by measuring Ca^++ mobilization using an ARUGUS HiSCA calcium imaging system. Administration of 0.7 nM recombinant human C5a (RhC5a) induced a transient increase in the level of intracellular Ca^++ of human neutrophils (FIG. 3a). The level of this activation was about 50% of the maximum achieved with higher concentrations of C5a. A mixture of C-peptide and C5a was incubated in an Eppendorf tube on ice for 30 min in the HBSS solution and then applied to the cells. […]

[5] = molecular target: PL37-MAP (Homo sapiens, UniProt P01031); experiment: Surface plasmon resonance (Biacore) binding of C-peptides to immobilized PL37-MAP; details: PBS, 25° C., 10 μl/min, EA-blocked cell subtracted
Protocol: as §1
The Biacore instrument which uses SPR technology measures association and dissociation in real time of an unlabeled analyte with an immobilized ligand. […]

[6] = system: skin reaction of rats; experiment: Skin reaction of rats: Evans Blue exudation after intradermal 5I2 (anti-Crry mAb); assay type: in vivo, rat
Protocol: Within one exemplary embodiment illustrating construction of useful C5a-modulatory peptide analogs and mimetics from a direct C5a complement peptide (or reference C5a-modulatory peptide sequence), an acetylated derivative of Pep-A (A-Pep-A) was constructed and tested for use within the methods and compositions of the invention. A-Pep-A is a peptide with the same sequence as that of Pep-A with acetylated alanine at the amino-terminal amino acid. Effect of A-Pep-A was tested on the lethal shock of mice induced by intravenous administration of CAWS (Candida albicans water soluble extract). […] ICR mice were injected with 4 mg/kg of A-Pep-A intraperitonally (i.p.) or intravenously (i.v.) 10 min before i.v. challenge with […] 100 μg CAWS. […] Effect of A-Pep-A was also evaluated on the skin reaction of rats. […]

[7] = system: ICR mice; experiment: Lethal shock of mice induced by intravenous CAWS (Candida albicans water soluble extract); assay type: in vivo, mouse
Protocol: Within one exemplary embodiment illustrating construction of useful C5a-modulatory peptide analogs and mimetics from a direct C5a complement peptide (or reference C5a-modulatory peptide sequence), an acetylated derivative of Pep-A (A-Pep-A) was constructed and tested for use within the methods and compositions of the invention. A-Pep-A is a peptide with the same sequence as that of Pep-A with acetylated alanine at the amino-terminal amino acid. Effect of A-Pep-A was tested on the lethal shock of mice induced by intravenous administration of CAWS (Candida albicans water soluble extract). […] ICR mice were injected with 4 mg/kg of A-Pep-A intraperitonally (i.p.) or intravenously (i.v.) 10 min before i.v. challenge with […] 100 μg CAWS. […] Effect of A-Pep-A was also evaluated on the skin reaction of rats. As an indicator dye of vascular exudation, rats were i.v. injected with 0.5 ml of Evans Blue (8 mg/ml in saline) 30 min before intradermal (i.d.) injection of 5 μg 512 (anti-Crry monoclonal antibody) together with Pep-A, A-Pep-A of saline control).

[8] = 4 mg/kg i.v. 10 min before anti-Crry mAb

## PL37-MAP: PL37 (C5a fragment aa 37-53, RAARISLGPRCIKAFTE, SEQ ID NO: 2) in multiple antigenic peptide form (also: multiple antigenic peptide form on lysine core) [reference compound]
[1]
  Amplitude of induced inward current pulses: 500 pA

## ASGAPAPGPAGPLRPMF [Pep-A, ASGAPAPGPAGPLRPMF]
[2]; rat, inferred from loss of effect at 30 min pre-dosing
  Time in which peptide had been degraded in vivo: ≤ 30 min
[2]; rats injected with Pep-A (LPS sensitized, without anti-Crry mAb)
  Harmful / side effects of the peptide in rats: survived with no harmful effect; also recorded: without any noticeable deleterious side effects

## ASTAPARAGLPRLPKFF [Pep-B]
[3]
  Binding to C5a-coupled flow cell: did not
[2]; [8]
  Survival rate (%): 0%
  Surviving/total number of rats: died and 0/4
[1]; 50 μM C-peptide
  Inhibition of inward ion current pulse evoked by PL37-MAP: did not have any effect; also recorded: did not block
[4]; 0.7 nM C5a, 70 nM C-peptide, human neutrophils
  Inhibition of C5a-triggered Ca++ mobilization: failed to cause inhibition; also recorded: no inhibition
[4]; 0.7 nM C5a, 700 nM C-peptide, human neutrophils
  Inhibition of C5a-triggered Ca++ mobilization: failed to cause inhibition; also recorded: no inhibition
[5]
  Binding to PL37-MAP-coupled flow cell: did not

## A-Pep-A: Peptide with the same sequence as Pep-A with acetylated alanine at the amino-terminal amino acid (Ac-ASGAPAPGPAGPLRPMF)
[6]; 5I2 2.5 μg + peptide 40 μg i.d., spots measured from reverse side of removed skin
  Blue spots at 2 h: 3 +/− 1
[6]; summary of Table 3
  Inhibition of dye exudation / skin inflammation: suppressed the dye exudation
[4]; 1 nM C5a, 350 nM peptide, human neutrophils (FIG. 5)
  Inhibition of C5a-triggered Ca++ mobilization: completely inhibited; also recorded: much stronger effect than Pep-A
[7]; 4 mg/kg i.p., CAWS 100 μg/mouse
  Dead/total: 3/3
[7]; 4 mg/kg i.p., CAWS 200 μg/mouse
  Dead/total: 3/3
[7]; 4 mg/kg i.v., CAWS 100 μg/mouse
  Dead/total: rescued half of mice
[7]; 4 mg/kg i.v., CAWS 100 μg/mouse, listed as A-PepA
  Dead/total: 2/4
[7]; 4 mg/kg i.v., CAWS 200 μg/mouse
  Dead/total: 3/3
